This note sets out measurements from EP4692071A1, “PHOTOCHROMIC COMPOUND, NAPHTHOL DERIVATIVE, CURABLE COMPOSITION, OPTICAL ARTICLE, LENS, AND EYEGLASS” (TOKUYAMA CORPORATION, priority 2023, dated 2024).

The structures appear in SMILES notation.

What all share (type): physicochemical
A short description of data set [1]: Maximum absorption wavelength (λmax) after color development, spectrophotometer MCPD3000. Summed up: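 Read-out: absorbance at λmax, multichannel photodetector spectrophotometer. Colour density = ε(240) − ε(0), 240 s light, 23°C. τ1/2 = time for ε(240) − ε(0) to halve after light off. Residual rate compares density before and after 90 h xenon weathering.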
Data set [2] in a line: 23°C color optical density (A23): absorbancy difference ε(240)-ε(0) after 240 s light irradiation at 23°C. The note with it: 240 s irradiation. The procedure: (§1) • [1] Maximum Absorption Wavelength (λmax): The maximum absorption wavelength after color development, measured using a spectrophotometer (instantaneous multichannel photodetector MCPD3000) manufactured by Otsuka Electronics Co., Ltd. was used as an indicator for the color tone during the color development. • [2] 23°C Color Optical Density (A23): A difference between an absorbancy measured after light irradiation at 23°C for 240 seconds {ε(240)} and an absorbancy without light irradiation ε(0) at the maximum absorption wavelength was used as an indicator for the color optical density. […] 35°C Color Optical Density (A35): A difference between an absorbancy measured after light irradiation at 35°C for 240 seconds {ε(240)} and an absorbancy without light irradiation ε(0) at the first and second absorption wavelengths was used as an indicator for the color optical density. […] 23°C color fading half-life [τ1/2 (sec.)]: A time required for the absorbancy of the sample at the maximum absorption wavelength to decrease to 1/2 of {ε(240)-ε(0)} when the light irradiation is terminated after the light irradiation at 23°C for 240 seconds, was used as an indicator for the color fading speed. The shorter this time, the higher the color fading speed. • [6] Residual rate (A90/A0×100): The obtained photochromic plastic lens was subjected to accelerated deterioration using a xenon weather meter X25 manufactured by Suga Test Instruments Co., Ltd. for 90 hours. Subsequently, the color optical density was evaluated before and after the test, then a color optical density before the test (A0) and a color optical density after the test (A90) were measured, and a ratio (A90/A0) was defined as a residual rate. The residual rate was used as an indicator for a color developing durability. The higher the residual rate, the higher the color developing durability.

Data set [3] in a line: 35°C color optical density (A35): absorbancy difference ε(240)-ε(0) after 240 s light irradiation at 35°C. Conditions: 240 s irradiation. Here is the method: as §1
Data set [4] is described as follows: High-temperature color development rate (A35/A23×100), temperature dependency. Summed up:
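Color optical density was taken as the absorbance after 240 seconds of light irradiation, ε(240), minus the absorbance without irradiation, ε(0), at the absorption maximum. It was measured at 23°C (A23) and at 35°C (A35), and the ratio A35/A23×100 served as the high-temperature color development rate, showing temperature dependency.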

A short description of data set [5]: Residual rate (A90/A0×100) after 90 h accelerated deterioration in xenon weather meter X25, color developing durability. Conditions: xenon weather meter 90 hours. Summed up: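 Steps: record the coloured spectrum to find λmax; irradiate the lens for 240 s at 23°C and subtract unirradiated absorbance; stop the light and time the decay to half of that difference; age the lens 90 h under xenon and re-measure colour density.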

Where [6] appears, read: cured product by kneading method, 1 mm.
[7] abbreviates: photochromic laminate by coating method.

Turning to `CCCC1(CCC)c2ccccc2-c2c1c1c(c3cc(OC)c(N(C)c4ccccc4)cc23)OC(c2ccc(OC)cc2)(c2ccc(OC)cc2)C=C1` [Example 3 Formula (32)], the “Maximum absorption wavelength (nm)” value in data set [1] (binder sheet (binder method), urethaneurea resin photochromic layer between polycarbonate sheets, 0.25 mmol per 100 parts by mass resin) stood at 498 nm; in data set [1] (photochromic cured product by kneading method, 1 mm thick thiourethane, 0.106 mmol per 100 g monomers) it was 502 nm; in data set [1] (photochromic laminate by coating method, 40 µm photochromic layer on thiourethane lens, 0.25 mmol compound per 100 g monomers), 498 nm. Besides, the “A23 (-)” value was 1.11 - in data set [2] (binder sheet (binder method)); 1.12 - in data set [2] (setting [6]); 1.0897 - in data set [2] (photochromic laminate by coating method, at the maximum absorption wavelength). In addition, the “A35 (-)” value in data set [3] (binder sheet (binder method)) is 0.76 -; in data set [3] (setting [6]) it was 0.77 -; in data set [3] (setting [7]), 0.74 -. In addition, the figures for the “A35/A23 *100 (%)” value in data set [4] (binder sheet (binder method)), in data set [4] (setting [6]) and in data set [4] (setting [7]) were 68%, 69% and 68%, respectively. Further, the figures for the “Residual rate (%)” value in data set [5] (binder sheet (binder method)), in data set [5] (setting [6]) and in data set [5] (setting [7]) were 97%, 90% and 84%, respectively.
